Measured values reported in ChEMBL document CHEMBL5550096, “Casitas b cell lymphoma‑B (Cbl-b): A new therapeutic avenue for small-molecule immunotherapy” (Bioorg Med Chem, 2024).
Values belong to the compound of their own block, whether it stands above or below them. Where a SMILES comes first, the peptide text is derived from it. [ ]: non-standard residue; d: D form. The star is where a group is joined. pY = N[C@@H](Cc1ccc(OP(=O)(O)O)cc1)C(=O)O; Myristoyl = CCCCCCCCCCCCCC(=O)*

Experiments:
[1] = target: T1, E3 ubiquitin-protein ligase CBL-B (Homo sapiens, UniProt Q13191)
T1 sequence (Q13191 whole entry): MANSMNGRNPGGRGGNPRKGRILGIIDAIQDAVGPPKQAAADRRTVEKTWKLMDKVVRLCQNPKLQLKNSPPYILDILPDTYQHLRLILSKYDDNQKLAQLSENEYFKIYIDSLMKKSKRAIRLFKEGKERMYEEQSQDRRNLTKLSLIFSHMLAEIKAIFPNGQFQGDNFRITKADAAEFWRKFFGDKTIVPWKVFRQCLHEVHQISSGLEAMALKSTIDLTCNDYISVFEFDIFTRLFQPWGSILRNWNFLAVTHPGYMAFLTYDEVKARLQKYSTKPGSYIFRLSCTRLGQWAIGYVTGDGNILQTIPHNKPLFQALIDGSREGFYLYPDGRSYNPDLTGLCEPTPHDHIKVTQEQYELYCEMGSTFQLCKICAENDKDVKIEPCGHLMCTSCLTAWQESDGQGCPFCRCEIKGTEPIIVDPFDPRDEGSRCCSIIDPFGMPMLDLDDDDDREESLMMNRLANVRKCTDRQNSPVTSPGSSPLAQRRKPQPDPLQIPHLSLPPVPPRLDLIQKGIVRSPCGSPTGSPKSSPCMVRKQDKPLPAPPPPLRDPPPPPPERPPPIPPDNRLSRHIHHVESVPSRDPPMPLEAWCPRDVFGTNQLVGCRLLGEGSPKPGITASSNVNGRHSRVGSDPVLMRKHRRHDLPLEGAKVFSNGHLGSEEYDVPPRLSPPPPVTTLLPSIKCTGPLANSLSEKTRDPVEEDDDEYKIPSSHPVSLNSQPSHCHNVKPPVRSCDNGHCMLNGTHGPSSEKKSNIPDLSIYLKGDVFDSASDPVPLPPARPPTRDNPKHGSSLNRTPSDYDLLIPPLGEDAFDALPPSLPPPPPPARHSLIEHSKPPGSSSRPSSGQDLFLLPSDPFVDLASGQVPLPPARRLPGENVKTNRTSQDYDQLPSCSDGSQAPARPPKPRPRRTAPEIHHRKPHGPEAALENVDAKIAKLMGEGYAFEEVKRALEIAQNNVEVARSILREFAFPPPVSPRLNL
Description: Binding affinity to CBl-b (unknown origin) assessed as dissociation constant by Surface plasmon resonance

[2] = target: T1, E3 ubiquitin-protein ligase CBL-B; assay: Inhibition of Cbl-b (unknown origin) by TR-FRET assay
[3] = target: T1, E3 ubiquitin-protein ligase CBL-B; assay: Inhibition of Cbl-b (unknown origin) ubiquitination by TR-FRET assay
[4] = Intrinsic clearance in mouse liver microsomes by HPLC-MS/MS analysis
[5] = Half life in rat plasma; type: ADME, cell-free
[6] = target: T1, E3 ubiquitin-protein ligase CBL-B; assay: Inhibition of recombinant Cbl-b (unknown origin) ubiquitination incubated for 1 hr by TR-FRET assay
[7] = target: T1, E3 ubiquitin-protein ligase CBL-B; assay: Inhibition of Cbl-b (unknown origin)
[8] = target: T1, E3 ubiquitin-protein ligase CBL-B; assay: Inhibition of biotinylated recombinant Cbl-b (36 to 427 residues)(unknown origin) expressed in Escherichia coli BL21(DE3) measured for 1 hr by TR-FRET assay
[9] = target: T1, E3 ubiquitin-protein ligase CBL-B; assay: Inhibition of Cbl-b (unknown origin) by SPR assay
[10] = target: T1, E3 ubiquitin-protein ligase CBL-B; assay: Inhibition of Cbl-b (unknown origin) by HTRF assay
[11] = target: T1, E3 ubiquitin-protein ligase CBL-B; assay: Inhibition of N-terminal His-tagged human Cbl-b (40 to 426 residues) expressed in Escherichia coli by measured for 90 mins by HTRF method

SMILES: Cc1cc(C(=O)Nc2cccc(C3(Cc4nncn4C)COC3)c2)nc(C2CC2)n1
Kd [1]: 20 nM | IC50 [2]: 20 nM | IC50 [3]: 21 nM

SMILES: C[C@H]1CCCN(Cc2cc3c(c(C(F)(F)F)c2)CN(c2cccc([C@]4(c5nncn5C)C[C@@H](C)C4)c2)C3=O)C1
Kd [1]: 8 nM | IC50 [6]: < 5 nM | IC50 [3]: < 5 nM

SMILES: Cn1cnnc1C(F)(F)[C@](C)(F)c1cccc(NC(=O)N2CC3(CNC3)Oc3cccnc32)c1
IC50 [7]: < 100 nM | IC50 [8]: < 100 nM

SMILES: C[C@H](Cc1nncn1C)c1cccc(-c2n[nH]c3c(CN4CC[C@H](F)C4)cc(C(F)(F)F)nc23)c1
IC50 [7]: < 100 nM | IC50 [8]: < 100 nM

SMILES: Cn1cnnc1[C@]1(c2cccc(NC(=O)c3cc(CN4CCC[C@H](C(F)F)C4)cn4ccnc34)c2)C[C@H](CC#N)C1
IC50 [7]: 5 nM | IC50 [11]: 1 nM

SMILES: C[C@H]1CCCN(Cc2cc(C(F)(F)F)c3[nH]c(-c4cccc([C@]5(c6nncn6C)C[C@@H](C)C5)c4)nc3c2)C1
IC50 [7]: < 200 nM | IC50 [8]: < 200 nM

SMILES: Cn1cnnc1[C@]1(c2cccc(-c3cnc4c(C(F)(F)F)cc(CN5CC6CC(C)(C6)C5)cn4c3=O)c2)C[C@H](C)C1
IC50 [7]: 20 nM | IC50 [11]: 25 nM

SMILES: Cn1cnnc1[C@]1(c2cccc(N3C(=O)c4cc(CNC5(C)CCC5)cc5cccc3c45)c2)C[C@H](C)C1
IC50 [9]: 20 nM | IC50 [10]: 20 nM

SMILES: CC(C)[C@H]1CN(C)CCN1Cc1cc(C(=O)Nc2cccc(C3([C@@H](F)c4nncn4C)CC(F)(F)C3)c2)nc(C2CC2)c1
IC50 [10]: 7 nM | IC50 [3]: 7 nM

Results, then the compound that gave them:

CLint scaled [4]: 500 mL/min/kg | half-life [5]: 2.33 h
SMILES: C[C@H](Sc1nncn1C)c1cccc(NC(=O)c2ccnc(C3CC3)n2)c1

Kd [1]: 4 nM | IC50 [9]: 4 nM
SMILES: COCC1(NCc2cc3c(c(C(F)(F)F)c2)CN(c2cccc([C@]4(c5nncn5C)C[C@H](OC)C4)c2)C3=O)CC1

IC50 [9]: 200 nM | IC50 [10]: < 200 nM
SMILES: Cn1cnnc1-c1cc(C#N)ccc1-c1cc(C2CC2)nc(N2Cc3c(cc(CNCC4(F)CCC4)cc3C(F)(F)F)C2=O)c1

IC50 [7]: 10 nM | IC50 [11]: 13 nM
SMILES: Cc1cc(CNC2(C)CCC2)cc2c(=O)c(-c3cccc([C@]4(c5nncn5C)C[C@@H](C)C4)c3)coc12

IC50 [7]: 11000 nM | IC50 [11]: 4 nM
SMILES: CC(c1cc(C(=O)Nc2cccc([C@]3(c4nncn4C)C[C@@H](CC#N)C3)c2)nc2cc[nH]c12)N1CCC[C@H](C)C1 (stereo partly specified)

IC50 [7]: < 100 nM | IC50 [8]: < 100 nM | IC50 [6]: < 100 nM
SMILES: Cn1cnnc1[C@]1(c2cccc(-n3cc4c(C(F)(F)F)cc(CN5CCC6(CC6)C5)cn4c3=O)c2)C[C@H](C)C1

IC50 [7]: 11000 nM
SMILES: CO[C@@]1(C(=O)N/C=C/c2ccc(O)cc2)O[C@](O)(C(=O)N/C=C/c2ccc(O)cc2)[C@@H](c2ccc(O)c(O)c2)[C@@H]1c1ccc(O)c(O)c1

IC50 [7]: 6500 nM
SMILES: O=C(N/C=C/c1ccc(O)cc1)c1c(-c2ccc(O)c(O)c2)c(-c2ccc(O)c(O)c2)c(C(=O)N/C=C/c2ccc(O)cc2)n1CCc1ccc(O)cc1

IC50 [6]: 30000 nM
SMILES: CCCCCCCCCCCCCC(=O)N[C@@H](CC(=O)O)C(=O)NCC(=O)N[C@@H](Cc1ccc(OP(=O)(O)O)cc1)C(=O)N[C@@H](CCSC)C(=O)N1CCC[C@H]1C(=O)O (Myristoyl-DG[pY]MP-OH)
